Experimental data: ChEMBL document CHEMBL4765304, “Synthesis and anticancer activity of thiourea derivatives bearing a benzodioxole moiety with EGFR inhibitory activity, apoptosis assay and molecular docking study” (Eur J Med Chem, 2020)

Experiments:
[1] = tested on: HCT-116; assay: Cytotoxicity against human HCT-116 cells assessed as reduction in cell viability by SRB assay; assay type: functional, cell-based
[2] = tested on: HepG2; assay: Cytotoxicity against human HepG2 cells assessed as reduction in cell viability by SRB assay; assay type: functional, cell-based
[3] = tested on: MCF7; assay: cells; conditions: Homo sapiens
Description: Cytotoxicity against human MCF7 cells assessed as reduction in cell viability by SRB assay

[4] = tested on: WI-38; assay: Cytotoxicity against human WI-38 cells assessed as reduction in cell viability by SRB assay; assay type: cell-based
[5] = tested on: HepG2; assay: Induction of cell cycle arrest in human HepG2 cells assessed as preG1 phase accumulation by flow cytometry analysis (reference value: 1.86 %); assay type: functional
[6] = tested on: HepG2; assay: Induction of apoptosis in human HepG2 cells assessed as Bax level (reference value: 27.35 pg/ml); assay type: functional
[7] = tested on: HepG2; assay: Induction of apoptosis in human HepG2 cells assessed as late apoptotic cells at 5 uM incubated for 24 hrs by annexin V-FITC and PI staining based flow cytometry analysis (reference value: 0.56 %); assay type: functional
[8] = tested on: HepG2; assay: Induction of apoptosis in human HepG2 cells assessed as Bcl2 level (reference value: 6.639 pg/ml); assay type: functional
[9] = biological target: Epidermal growth factor receptor (Homo sapiens, UniProt P00533); assay: Inhibition of EGFR (unknown origin) by FRET assay
Chain of Epidermal growth factor receptor (P00533 whole entry): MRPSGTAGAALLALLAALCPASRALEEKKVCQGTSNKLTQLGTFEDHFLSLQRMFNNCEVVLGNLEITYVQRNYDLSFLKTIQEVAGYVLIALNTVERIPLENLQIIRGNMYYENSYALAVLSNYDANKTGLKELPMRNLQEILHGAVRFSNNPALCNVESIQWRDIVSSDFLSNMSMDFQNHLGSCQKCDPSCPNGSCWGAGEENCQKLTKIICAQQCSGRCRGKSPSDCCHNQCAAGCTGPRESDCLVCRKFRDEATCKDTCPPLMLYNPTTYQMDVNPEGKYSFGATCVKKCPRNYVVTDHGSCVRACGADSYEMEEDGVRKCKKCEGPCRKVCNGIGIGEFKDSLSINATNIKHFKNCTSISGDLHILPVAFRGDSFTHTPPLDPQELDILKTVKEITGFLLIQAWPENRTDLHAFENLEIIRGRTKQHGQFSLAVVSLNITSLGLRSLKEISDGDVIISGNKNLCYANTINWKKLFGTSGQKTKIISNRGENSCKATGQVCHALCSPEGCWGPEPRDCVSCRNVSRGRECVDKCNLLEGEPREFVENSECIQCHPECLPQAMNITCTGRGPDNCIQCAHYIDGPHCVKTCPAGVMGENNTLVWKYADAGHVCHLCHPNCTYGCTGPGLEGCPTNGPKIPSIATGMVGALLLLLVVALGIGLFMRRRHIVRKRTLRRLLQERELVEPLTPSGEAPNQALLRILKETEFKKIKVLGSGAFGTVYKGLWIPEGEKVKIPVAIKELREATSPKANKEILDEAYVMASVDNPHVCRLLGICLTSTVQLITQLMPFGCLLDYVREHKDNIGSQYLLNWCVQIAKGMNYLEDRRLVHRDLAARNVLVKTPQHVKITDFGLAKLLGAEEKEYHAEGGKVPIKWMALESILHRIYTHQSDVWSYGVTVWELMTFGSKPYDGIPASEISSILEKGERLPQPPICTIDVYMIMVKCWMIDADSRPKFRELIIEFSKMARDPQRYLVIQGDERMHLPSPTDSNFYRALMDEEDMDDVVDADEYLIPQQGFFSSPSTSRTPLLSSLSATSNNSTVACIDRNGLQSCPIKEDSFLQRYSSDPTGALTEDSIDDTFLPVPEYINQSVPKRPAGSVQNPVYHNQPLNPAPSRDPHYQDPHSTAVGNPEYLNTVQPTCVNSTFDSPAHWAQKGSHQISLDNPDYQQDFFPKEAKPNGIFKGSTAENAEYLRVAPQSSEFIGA

[10] = tested on: HepG2; assay: Induction of cell cycle arrest in human HepG2 cells assessed as G0/G1 phase accumulation by flow cytometry analysis (reference value: 57.36 %); assay type: functional
[11] = tested on: HepG2; assay: Induction of apoptosis in human HepG2 cells at 5 uM incubated for 24 hrs by annexin V-FITC and PI staining based flow cytometry analysis (reference value: 1.86 %); assay type: functional
[12] = tested on: HepG2; assay: Induction of cell cycle arrest in human HepG2 cells assessed as G2/M phase accumulation by flow cytometry analysis (reference value: 6.32 %); assay type: functional
[13] = tested on: HepG2; assay: Induction of apoptosis in human HepG2 cells assessed as early apoptotic cells at 5 uM incubated for 24 hrs by annexin V-FITC and PI staining based flow cytometry analysis (reference value: 0.87 %); assay type: functional
[14] = tested on: HepG2; assay: Induction of apoptosis in human HepG2 cells assessed as necrotic cells at 5 uM incubated for 24 hrs by annexin V-FITC and PI staining based flow cytometry analysis (reference value: 0.43 %); assay type: functional
[15] = tested on: HepG2; assay: Induction of cell cycle arrest in human HepG2 cells assessed as S phase accumulation by flow cytometry analysis (reference value: 36.22 %); assay type: functional

IC50 [3] [µM]	IC50 [9] [µM]	Compound	IC50 [1] [µM]	IC50 [2] [µM]	IC50 [4] [µM]	Activity [5] [%]	Activity [6] [pg/mL]	Activity [7] [%]	Activity [8] [pg/mL]	Activity [10] [%]	Activity [11] [%]	Activity [12] [%]	Activity [13] [%]	Activity [14] [%]	Activity [15] [%]
179	–	O=C(c1ccccc1)c1ccccc1NC(=S)Nc1ccc2c(c1)OCO2	171	167	435	–	–	–	–	–	–	–	–	–	–
4.63	0.493	S=C(Nc1ccc2c(c1)OCO2)Nc1c2ccccc2nc2ccccc12	1.71	2.14	227	17.25	201.7	8.68	4.147	37.12	17.25	37.36	6.14	2.43	25.52
25.2	–	O=C(NNC(=S)Nc1ccc2c(c1)OCO2)c1ccncc1	5.63	11.6	184	–	–	–	–	–	–	–	–	–	–
160	–	N=C(N)NS(=O)(=O)c1ccc(NC(=S)Nc2ccc3c(c2)OCO3)cc1	127	132	364	–	–	–	–	–	–	–	–	–	–
10.8	0.993	S=C(NN=C(c1ccccc1)c1ccccc1)Nc1ccc2c(c1)OCO2	2.4	5.76	192	–	–	–	–	–	–	–	–	–	–
103	–	NS(=O)(=O)c1ccc(NC(=S)Nc2ccc3c(c2)OCO3)cc1	86.3	95.7	325	–	–	–	–	–	–	–	–	–	–
7	8.26	S=C(NNc1ccccc1)Nc1ccc2c(c1)OCO2	1.11	1.74	271	–	–	–	–	–	–	–	–	–	–
11.7	1.62	O=S(=O)(Nc1nccs1)c1ccc(NC(=S)Nc2ccc3c(c2)OCO3)cc1	2.53	2.99	201	–	–	–	–	–	–	–	–	–	–
17.6	–	O=S(=O)(NNC(=S)Nc1ccc2c(c1)OCO2)c1ccccc1	10	11.7	207	–	–	–	–	–	–	–	–	–	–
13.4	1.89	O=S(=O)(Nc1ccccn1)c1ccc(NC(=S)Nc2ccc3c(c2)OCO3)cc1	4.78	7.03	189	–	–	–	–	–	–	–	–	–	–
68.9	–	O=C1c2ccccc2C(=O)N1NC(=S)Nc1ccc2c(c1)OCO2	55.4	59.1	287	–	–	–	–	–	–	–	–	–	–
17	0.358	Cc1c(NC(=S)Nc2ccc3c(c2)OCO3)c(=O)n(-c2ccccc2)n1C	3.16	3.79	176	20.43	215.8	10.62	3.374	29.15	20.43	40.64	7.28	2.53	30.21
